In patent US20080206311A1, “Sucrase Activity Inhibitor, Glucoamylase Activity Inhibitor and Food and Feed Containing the Same” (MITSUI SUGAR CO., LTD., priority 2005, published 2008):

What was measured:
[1] = tested on: small-intestinal enzyme liquid; assay: Decomposition of a saccharide alone (control solution) by small-intestinal enzyme liquid; assay type: biochemical, rat
Experimental: (§1) Palatinose (trade name: Palatinose IC, ex Shin Mitsui Sugar Co., Ltd.) (test sample) was used as a sample for investigating each enzyme activity inhibitory effect. Maltose and sucrose were used as substrates for maltase and sucrose, respectively. The test sample and the substrates were dissolved in 0.1 M phosphate buffer (pH 6.8) at the concentration shown in Table 1 below to prepare test solutions (Solutions 4 and 5). Also, the test sample or the substrates were dissolved in 0.1 M phosphate buffer (pH 6.8), respectively to at the concentration shown in Table 1 below to prepare control solutions (Solution 1 for the test sample and Solutions 2 and 3 for the substrates).
(§2) Two grams of rat small-intestinal acetone powder (ex Sigma Corporation) were dissolved in 20 ml of 0.1 M phosphate buffer (pH 6.8), left standing one day at 5° C., and subsequently subjected to centrifugal separation (8000 rpm×15 min.). The supernatant was filtered through a 0.8 μm membrane filter to obtain a small-intestinal enzyme liquid. This liquid contained a mixture of enzymes present in small intestine, such as sucrose, glucoamylase, maltase, and isomaltase.
(§3) Each 0.25 ml of the small-intestinal enzyme liquid was added to each 5 ml of Solutions 1 through 5 and placed in a water bath at 37° C. to allow them to react for 60 min. while shaken at 60 strokes/min. After the reaction, they were heated in a boiling water bath for 3 min. for inactivation of the enzymes.
(§4) The glucose concentration in each solution after the reaction was measured using the F-kit Glucose (ex Roche). A liberated glucose concentration (g/l) was calculated by subtracting the blank value (0.1 M phosphate buffer alone) and the concentration of glucose originally contained in the test sample from each glucose concentration measured.
The fructose concentration was measured using the F-kit Fructose (ex Roche). The liberated fructose concentration, g/l, was obtained by subtracting the blank value (0.1 M phosphate buffer alone) from the resultant fructose concentration.
The procedures in Example 1 were repeated with the exception that palatinit, palatinose or isomaltose was used as a test sample and lactose was used as a substrate. The test samples and the substrate were dissolved in 0.1 M phosphate buffer (pH 6.8) to attain the concentration shown in Table 5 to thereby prepare three test solutions. Besides, each of the test samples or the substrate was dissolved in 0.1 M phosphate buffer (pH 6.8) to attain the concentration shown in Table 5 to thereby prepare control solutions. Each 5 ml of the aforementioned test solutions and the control solutions was subjected to the enzymatic reaction according to the same procedures as in Example 1. The glucose concentration, the fructose concentration and the galactose concentration were measured. The galactose concentration was measured using F-kit Galactose (ex Roche). The liberated galactose concentration, g/l, was calculated by subtracting the blank value (0.1 M phosphate buffer alone) from the measured galactose concentration.

[2] = target: T1, sucrose-isomaltase complex (Rattus norvegicus, UniProt P23739); assay: Confirmation test: decomposability of the sucrose-isomaltase complex (crude enzyme) on dextrin; assay type: biochemical; conditions: 37° C., 20 min
T1 construct: tissue Sigma Corporation; host or cells: rat small intestine (acetone powder); papain treatment, 45-65% ammonium sulfate cut, dialysis, DEAE-Cellulose fraction with highest sucrase activity
T1 sequence (P23739 33-1841 limits assumed, one chain of several): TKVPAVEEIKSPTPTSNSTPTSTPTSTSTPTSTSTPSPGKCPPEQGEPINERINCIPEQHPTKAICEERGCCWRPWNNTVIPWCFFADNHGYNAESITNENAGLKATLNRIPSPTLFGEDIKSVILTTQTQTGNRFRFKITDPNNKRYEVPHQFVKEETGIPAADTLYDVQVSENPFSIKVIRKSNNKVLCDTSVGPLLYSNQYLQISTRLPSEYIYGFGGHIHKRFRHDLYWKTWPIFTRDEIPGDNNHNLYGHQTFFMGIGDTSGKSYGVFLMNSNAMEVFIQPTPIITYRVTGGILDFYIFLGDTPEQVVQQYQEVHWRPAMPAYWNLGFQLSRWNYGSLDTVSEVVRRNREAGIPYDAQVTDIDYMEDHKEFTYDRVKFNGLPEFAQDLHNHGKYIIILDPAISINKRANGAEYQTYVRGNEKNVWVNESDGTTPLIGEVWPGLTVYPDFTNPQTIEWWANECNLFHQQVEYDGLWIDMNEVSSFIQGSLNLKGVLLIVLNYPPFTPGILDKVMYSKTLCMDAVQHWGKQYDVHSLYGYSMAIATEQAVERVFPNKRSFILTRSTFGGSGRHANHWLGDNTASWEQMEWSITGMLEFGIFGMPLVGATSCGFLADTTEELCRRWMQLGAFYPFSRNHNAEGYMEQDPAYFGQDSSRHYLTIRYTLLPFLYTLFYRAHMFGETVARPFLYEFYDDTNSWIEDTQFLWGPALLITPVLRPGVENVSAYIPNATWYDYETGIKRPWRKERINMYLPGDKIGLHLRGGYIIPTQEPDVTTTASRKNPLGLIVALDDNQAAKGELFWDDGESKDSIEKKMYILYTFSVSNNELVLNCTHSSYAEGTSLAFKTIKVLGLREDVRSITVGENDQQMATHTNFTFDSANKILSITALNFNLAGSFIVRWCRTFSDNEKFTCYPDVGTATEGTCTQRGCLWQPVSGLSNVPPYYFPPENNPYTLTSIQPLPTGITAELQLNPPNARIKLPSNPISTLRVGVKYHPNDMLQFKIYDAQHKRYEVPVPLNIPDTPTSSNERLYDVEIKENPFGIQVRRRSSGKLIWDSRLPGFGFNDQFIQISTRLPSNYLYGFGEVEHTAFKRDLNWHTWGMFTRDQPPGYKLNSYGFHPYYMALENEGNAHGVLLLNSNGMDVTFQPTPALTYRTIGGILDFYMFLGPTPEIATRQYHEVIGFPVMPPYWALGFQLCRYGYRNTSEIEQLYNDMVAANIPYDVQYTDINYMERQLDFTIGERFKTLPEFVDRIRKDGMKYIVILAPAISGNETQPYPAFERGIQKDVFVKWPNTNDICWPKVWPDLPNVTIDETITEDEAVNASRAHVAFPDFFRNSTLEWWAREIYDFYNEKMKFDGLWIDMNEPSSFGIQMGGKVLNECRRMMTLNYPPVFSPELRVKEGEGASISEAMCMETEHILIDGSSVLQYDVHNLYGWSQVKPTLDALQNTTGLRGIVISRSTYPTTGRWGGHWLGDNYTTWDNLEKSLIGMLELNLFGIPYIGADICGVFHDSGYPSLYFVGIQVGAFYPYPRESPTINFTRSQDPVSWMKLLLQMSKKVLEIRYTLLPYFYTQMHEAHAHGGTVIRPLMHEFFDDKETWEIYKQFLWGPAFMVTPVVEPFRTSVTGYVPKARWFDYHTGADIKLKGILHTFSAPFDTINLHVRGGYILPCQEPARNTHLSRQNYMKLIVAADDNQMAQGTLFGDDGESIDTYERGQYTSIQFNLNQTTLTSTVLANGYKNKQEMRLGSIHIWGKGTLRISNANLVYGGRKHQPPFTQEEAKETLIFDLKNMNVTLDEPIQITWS
Experimental: Decomposability of the sucrose-isomaltase complex on dextrin was investigated in order to confirm that decomposition of starch in the following Examples 4, 6 and 7 and Test Example 5 was attained by glucoamylase, but not by sucrose or isomaltase.
A. Extraction of a crude enzyme, sucrose-isomaltase complex Twenty grams of rat small-intestinal acetone powder (ex Sigma Corporation) were added to 180 ml of 50 mM potassium phosphate buffer (pH 7.0) and extracted for 4 hours while slowly stirred at room temperature, to which 6.5 ml of a cysteine solution (100 mg/10 ml) and 1.5 ml of a papain solution (MP Biomedicals, LLC 80 mg/2 ml) were subsequently added and the mixture was incubated at 37° C. for 1 hour to conduct a papain treatment. Then, a supernatant was recovered by centrifugal separation (8000 rpm×15 min.) and further filtered by aspiration using Toyo Filter Paper No. 2 to obtain 164 ml of a crude enzyme solution. Protein was precipitated at an ammonium sulfate concentration of 45% from the crude enzyme solution and then a supernatant was recovered by centrifugal separation (8000 rpm×15 min.). Next, ammonium sulfate was added to the supernatant up to a concentration of 65% to precipitate protein, and then the precipitate was recovered by centrifugal separation (8000 rpm×15 min.). […] The enzymatic activity was measured for each fraction and the fraction with the highest activity of a sucrose-isomaltase complex was recovered to obtain a 12 ml crude enzyme solution. The sucrose-isomaltase complex activity was determined by measuring a decomposition activity for sucrose in each fraction. […] A glucose concentration was determined using the F-kit Glucose (ex Roche) described in item D below. […]
A glucose concentration in each sample after the reaction was measured using the F-kit Glucose (ex Roche Corporation). A liberated glucose concentration (g/l) was calculated by subtracting a blank value (0.1 M phosphate buffer alone (pH 6.8)) and a concentration of glucose originally contained in the test sample (dextrin and sucrose) from the determined glucose concentration.

glucoamylase = assay: Glucoamylase activity inhibition with rat small-intestinal enzyme liquid, substrate soluble starch; assay type: biochemical; conditions: 5% soluble starch + 5% test sample
Experimental: as §2, §3, §4
(§5) Next, each of the liberated glucose concentration was input in the following equation to obtain decomposition inhibition ratio for maltase and sucrose. In the present tests, the substrates and the inhibitors were decomposed by enzymes present in the small-intestinal enzyme liquid. However, the enzymes decomposing the substrates are different from the enzymes decomposing the inhibitors. The decomposition inhibition ratio was determined as a measure for the inhibitory effect. When the inhibitor was added, the glucose concentration was lower than that seen when the substrate alone was reacted. A higher decomposition inhibition ratio means a stronger inhibitory effect.
(§6) Decomposition inhibition ratio,%={(A+B)−(AB)}+(A+B)×100 [Equation 1]
(§7) wherein (A+B) indicates a sum of a liberated glucose concentration in the control solution containing the test sample alone after the reaction (A) and a liberated glucose concentration in the control solution containing the substrate alone after the reaction (B); and (AB) indicates a liberated glucose concentration in the test solution containing the test sample (A) and the substrate (B), after the reaction.
The procedures in Example 1 were repeated with the exception that palatinose and palatinit were used as a test sample and soluble starch was used as a substrate. The test samples and the substrate were dissolved in 0.1 M phosphate buffer (pH 6.8) to attain the concentration shown in Table 6 to thereby prepare two test solutions. Besides, each of the test samples or the substrate was dissolved in 0.1 M phosphate buffer (pH 6.8) to attain the concentration shown in Table 6 to thereby prepare control solutions. Each 5 ml of the aforementioned test solutions and the control solutions was subjected to the enzymatic reaction according to the same procedures as in Example 1 and the liberated glucose concentration and the decomposition inhibition ratio were measured.
The procedures in Example 1 were repeated with the exception that trehalulose was used as a test sample and soluble starch was used as a substrate. The test sample and the substrate were dissolved in 0.1 M phosphate buffer (pH 6.8) to attain the concentration shown in Table 9 to thereby prepare a test solution. Besides, the test sample or the substrate was dissolved in 0.1 M phosphate buffer (pH 6.8) to attain the concentration shown in Table 9 to thereby prepare control solutions. Each 5 ml of the aforementioned test solution and the control solutions was subjected to the enzymatic reaction according to the same procedures as in Example 1 and the liberated glucose concentration and the decomposition inhibition ratio were measured.
The procedures in Example 1 were repeated with the exception that trehalose was used as a test sample and soluble starch was used as a substrate. […]

[3] = target: (Homo sapiens, UniProt P14410); conditions: 5-75 mM sucrose as substrate, 5 mM trehalulose as inhibitor; cited from earlier work
sucrase = target: T2, sucrase (Rattus norvegicus, UniProt P23739); assay: Sucrase activity inhibition with rat small-intestinal enzyme liquid, substrate sucrose; assay type: biochemical; conditions: 5% sucrose + 5% test sample
T2 construct: This liquid contained a mixture of enzymes present in small intestine, such as sucrose, glucoamylase, maltase, and isomaltase; tissue Sigma Corporation; host or cells: rat small intestine (acetone powder), buffer extract, unpurified
T2 sequence (P23739 whole entry): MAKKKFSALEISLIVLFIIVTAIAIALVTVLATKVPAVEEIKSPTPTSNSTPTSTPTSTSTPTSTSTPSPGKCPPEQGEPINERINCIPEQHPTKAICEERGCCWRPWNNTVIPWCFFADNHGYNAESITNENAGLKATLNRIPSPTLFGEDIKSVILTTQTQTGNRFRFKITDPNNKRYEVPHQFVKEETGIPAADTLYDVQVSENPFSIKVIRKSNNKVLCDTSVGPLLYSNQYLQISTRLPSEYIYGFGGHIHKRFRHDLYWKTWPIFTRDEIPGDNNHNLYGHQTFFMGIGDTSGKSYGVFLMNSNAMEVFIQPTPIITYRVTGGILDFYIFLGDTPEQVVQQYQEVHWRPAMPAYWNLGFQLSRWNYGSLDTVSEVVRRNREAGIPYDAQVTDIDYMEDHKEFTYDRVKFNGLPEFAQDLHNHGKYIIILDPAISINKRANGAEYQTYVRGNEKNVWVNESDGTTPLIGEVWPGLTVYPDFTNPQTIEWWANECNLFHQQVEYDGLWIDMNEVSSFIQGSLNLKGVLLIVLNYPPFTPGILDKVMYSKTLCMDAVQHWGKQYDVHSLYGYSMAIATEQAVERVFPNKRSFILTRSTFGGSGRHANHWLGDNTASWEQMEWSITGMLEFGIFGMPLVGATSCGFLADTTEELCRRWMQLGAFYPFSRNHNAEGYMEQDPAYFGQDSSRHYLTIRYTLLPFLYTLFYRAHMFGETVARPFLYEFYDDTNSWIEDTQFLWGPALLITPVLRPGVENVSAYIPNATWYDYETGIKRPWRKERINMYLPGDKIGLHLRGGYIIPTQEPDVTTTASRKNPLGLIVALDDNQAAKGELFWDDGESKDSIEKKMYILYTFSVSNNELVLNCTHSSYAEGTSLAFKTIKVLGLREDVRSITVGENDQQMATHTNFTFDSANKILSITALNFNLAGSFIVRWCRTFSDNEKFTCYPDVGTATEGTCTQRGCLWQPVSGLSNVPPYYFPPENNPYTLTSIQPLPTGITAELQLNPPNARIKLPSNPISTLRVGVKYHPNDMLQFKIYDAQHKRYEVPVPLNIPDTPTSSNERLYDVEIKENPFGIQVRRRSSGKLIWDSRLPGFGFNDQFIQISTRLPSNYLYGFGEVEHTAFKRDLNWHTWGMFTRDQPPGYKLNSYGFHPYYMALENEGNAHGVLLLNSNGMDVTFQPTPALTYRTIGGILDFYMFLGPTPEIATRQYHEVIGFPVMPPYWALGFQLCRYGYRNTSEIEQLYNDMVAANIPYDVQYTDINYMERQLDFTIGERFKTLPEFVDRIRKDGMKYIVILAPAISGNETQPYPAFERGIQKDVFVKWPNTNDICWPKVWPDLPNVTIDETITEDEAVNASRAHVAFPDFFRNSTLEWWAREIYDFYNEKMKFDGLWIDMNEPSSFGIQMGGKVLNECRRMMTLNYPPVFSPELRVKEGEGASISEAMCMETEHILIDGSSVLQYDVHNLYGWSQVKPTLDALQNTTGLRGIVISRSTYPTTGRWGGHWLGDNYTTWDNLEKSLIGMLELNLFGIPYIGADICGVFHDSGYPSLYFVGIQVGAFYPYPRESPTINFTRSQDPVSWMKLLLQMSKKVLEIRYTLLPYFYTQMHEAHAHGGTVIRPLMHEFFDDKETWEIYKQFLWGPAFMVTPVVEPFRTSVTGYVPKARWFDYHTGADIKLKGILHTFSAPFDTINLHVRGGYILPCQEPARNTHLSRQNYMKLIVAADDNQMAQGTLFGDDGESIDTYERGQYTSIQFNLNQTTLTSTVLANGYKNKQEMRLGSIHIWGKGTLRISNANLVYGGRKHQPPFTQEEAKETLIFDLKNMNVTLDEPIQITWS
Experimental: as §1, §2, §3, §4, §5, §6, §7
The procedures in Example 1 were repeated with the exception that the test solutions contained 5% of sucrose and 0.5%, 1.0%, 3.0% or 5.0% of palatinose to examine intensity of the sucrose activity inhibition. A control solution contained 5% of sucrose in 0.1 M phosphate buffer (pH 6.8).
The procedures in Example 1 were repeated with the exception that palatinit and palatinose were used as test samples and sucrose was used as a substrate. The test samples and the substrate were dissolved in 0.1 M phosphate buffer (pH 6.8) to attain the concentration shown in Table 3 to thereby prepare two test solutions. Besides, each one of the test samples or the substrate was dissolved in 0.1 M phosphate buffer (pH 6.8) to attain the concentration shown in Table 3 to thereby prepare control solutions. Each 5 ml of the aforementioned test solutions or the control solutions was subjected to the enzymatic reaction according to the same procedures as in Example 1. The glucose concentration and the fructose concentration were measured. […]

[4] = 5% saccharide alone, Example 3 / Test Examples 2, 3
[5] = 5% saccharide alone, Example 5 / Test Example 4
[6] = crude enzyme liquid 0.125 ml, dextrin 2% (Sample 1) or sucrose 26.6 mM (Sample 3)

| Liberated glucose concentration ([1]; 5% saccharide alone, 37° C., 60 min, pH 6.8, Example 1 / Test Example 1) [g/L] | Liberated fructose concentration [1, 4] [g/L] | Liberated glucose concentration [1, 4] [g/L] | Total concentration of liberated monosaccharides (glucose + fructose) ([1]; control solution with sucrose only, 5%) [g/L] | Mean amount of produced glucose [2, 6] [g/L] | Mean amount of produced glucose ([2]; crude enzyme liquid 0.25 ml, dextrin 2% (Sample 2)) [g/L] | Compound | Liberated glucose concentration [1, 5] [g/L] | Liberated glucose concentration ([1]; 5% saccharide alone, Example 6 / Test Example 5) [g/L] | Glucoamylase activity inhibitory effect (in words) (glucoamylase) | Decomposition inhibition ratio, %, against glucoamylase (glucoamylase; Example 6 / Test Example 5) [%] | Liberated glucose concentration (glucoamylase; Example 6 / Test Example 5) [g/L] | Inhibitory effect on the sucrase activity (reported) [3] | Sucrase activity inhibitory effect (in words) (sucrase) | Decomposition inhibition ratio, %, against sucrase (sucrase; Example 5 / Test Example 4) [%] | Liberated glucose concentration (sucrase; Example 5 / Test Example 4) [g/L] |
| --- | --- | --- | --- | --- | --- | --- | --- | --- | --- | --- | --- | --- | --- | --- | --- |
| 0.959 ± 0.022 | 1.09 | 1.01 | 2.10 | 0.474 |  | OC[C@H]1O[C@@](CO)(O[C@H]2O[C@H](CO)[C@@H](O)[C@H](O)[C@H]2O)[C@@H](O)[C@@H]1O [sucrose] | 1.628 |  |  |  |  |  |  |  |  |
|  |  |  |  | 0.057 | 0.088 | dextrin |  |  |  |  |  |  |  |  |  |
|  |  |  |  |  |  | trehalulose | 0.558 | 0.411 | has a glucoamylase activity inhibitory effect | 28 | 2.028 | no inhibitory effect | has the sucrose activity inhibitory effect | 36 | 1.403 |
